Reference: article PMC8397418, “Novel Bis-Thiazole Derivatives: Synthesis and Potential Cytotoxic Activity Through Apoptosis With Molecular Docking Approaches” (Frontiers in Chemistry, 2021)
pIC50: −log10 of the molar value. Entries after “also recorded” stand apart in the source; their conditions may differ. Read-outs that look alike come from different tables or passages of the source.

Assays:
[1] = system: MDA-MB-231 breast cancer cells; assay: MTT cytotoxicity assay, MDA-MB-231; type: cell-based; settings: Homo sapiens, read-out: IC50 MDA-MB-231 (Breast)
Experimental: (§1) The synthesized derivatives were screened for their cytotoxic activities against five cancer cell lines (two breast cancer cell lines: MCF-7 and MDA-MB-231, two ovarian cancer cell lines: A2780 and KF-28, and one cervical cancer cell line: Hela). This study was performed using serial concentrations of 25, 50, 100, 150, and 200 µM of each compound using the MTT assay. Percentages of cell viability of the tested compounds with serial concentration against the tested panel of cell lines are depicted in Figure 1, in which there is a decrease in the cell viability with increasing concentrations in a dose–response pattern. […] Therefore, compounds 5a, 5b, and 5f were thought worthwhile to further investigate their effects as either cytotoxic or antiproliferative effects and whether any of them is an inducer of apoptotic cell death in the representative cancer cell lines KF-28 and A2780.
(§2) The human ovarian serous carcinoma cell line KF-28 was kindly provided by Prof. Yoshihiro Kikuchi (Department of Obstetrics and Gynecology, National Defense Medical College, Saitama, Japan), and A2780 cell line was purchased from the ECACC (ECACC 93112519). The cells were maintained in RPMI-1640 (Sigma-Aldrich, United States). The cervical cancer cell line, Hela cells, breast cancer cell line, MCF-7, and MDA-MB-231 were purchased from the ATCC and cultured in DMEM. Both types of media were supplemented with 2 mM L-glutamine (Lonza, Belgium), 10% FBS (Sigma, St. Louis, MO, United States), and 1% penicillin/streptomycin (Lonza, Belgium). All cells were incubated at 37°C in 5% CO2 atmosphere (NuAire). All cancer cell lines were cultured according to the routine tissue culture work as discussed by the Freshney group ([Freshney, 2010]). The cells were plated at a density of 5,000 cells in triplicates in a 96-well plate. On the next day, the cells were treated with the indicated compound(s) at the indicated concentrations in a final volume of 100 μL media. Cell viability was assessed after 72 h using MTT solution (Promega) ([Mosmann, 1983]). 20 μL of the reagent was added to each well, the plate was incubated for 3 h, […] was subsequently measured (570 nm) using a plate reader, and then the IC50 values were calculated using Excel ([Tantawy et al., 2020]).

[2] = system: Hela cervical cancer cells; assay: MTT cytotoxicity assay, Hela; type: cell-based; settings: Homo sapiens, 72 h
Experimental: as §1, §2

[3] = system: MEF normal mouse embryonic fibroblast; assay: MTT cytotoxicity assay, MEF; type: cell-based; settings: n = 3
C-myc in KF-28 cells = assay: Western blot of C-myc expression; type: cell-based, human; settings: two days, vs DMSO
Text: Pim-1 has been classified as a weak oncogene. However, a very strong synergism with regard to tumorigenicity occurs between Pim-1 and C-myc. This synergism is observed with bitransgenic mice overexpressing C-myc and Pim-1 in lymphoid tissue ([Möröy et al., 1991]). To further validate the simulation and docking data which introduced Pim-1 kinase as a potential target molecule for some of the tested compounds, we decided to check the effect of treatment with the selected compounds on the C-myc protein expression as a downstream target molecule known to be phosphorylated and stabilized by Pim-1 as a kinase ([Zhang et al., 2008]). […] Taking into consideration the fact that Pim-1 phosphorylates C-myc and controls its stability ([Zhang et al., 2008]) may conclude that the reduction of C-myc expression under the indicated compounds is due to the inhibition of Pim-1 activity (Figure 3). Therefore, the speculated inhibition of Pim-1 is supported by the above-mentioned qPCR data (Figure 3) and further supported by C-myc downregulation. Our results agree with the reported one which states that some thiazole derivatives are potent inhibitors against protein kinases including Pim-1 kinase ([Mohareb et al., 2019]).
Cell lysates were prepared by lysing cells in RIPA buffer (10 mM Tris (pH 7.4), 150 mM NaCl, 1% Triton X-100, 1% Na deoxycholate), supplemented with protease inhibitor cocktail (Sigma). Protein concentration of whole cell lysates was determined by the […] using the BSA kit (Pierce), and then equal protein amounts were heated to 95 °C for 5 min with sodium dodecyl sulfate (SDS) sample buffer (25 ml glycerol, 31.2 ml Tris buffer, 7.5 ml SDS, a dash of bromophenol blue/100 ml) and run on 15% SDS polyacrylamide gel electrophoresis (SDS-PAGE). Protein samples were then blotted onto PVDF membranes (Immobilon P, Watford, United Kingdom). The membranes were incubated in blocking solution (5% non-fat milk in PBS) for 1 h and then in primary antibody (anti-human C-myc pAb (Abcam; at dilution of 2:1,000) or GAPDH mAb (Santa Cruz; at dilution of 20:1,000)) overnight. After 3 × 10 min washes in TBS (0.1% Tween-20 in PBS), the membrane was incubated for 1 h at room temperature with horseradish-peroxidase–linked (HRP) secondary anti-rabbit or anti-mouse Ab (1:1,000 dilution in PBS). Signals on the membrane were developed using ECL reagent (Amersham, CA, United States) and then were imaged with the Chemidoc system (Bio-Rad, United States).

[4] = system: MCF-7 breast cancer cells; assay: MTT cytotoxicity assay, MCF-7; type: cell-based, human; settings: read-out: IC50 MCF-7 (Breast)
Experimental: as §1, §2

[5] = system: A2780 ovarian cancer cells; assay: MTT cytotoxicity assay, A2780; type: cell-based, human; settings: read-out: IC50 A2780 (Ovarian)
Experimental: as §1, §2

[6] = system: KF-28 ovarian cancer cells; assay: MTT cytotoxicity assay, KF-28; type: cell-based, human; settings: 72 h, read-out: IC50 KF-28 (Ovarian)
Experimental: as §1, §2

KF-28 cells [7] = assay: Annexin V-FITC/PI apoptosis assessment; type: cell-based, human; settings: 48 h, cisplatin 10 μM, DMSO control 0.45%
Experimental: Therefore, we decided to use such technique to investigate if the cytotoxic effect of the compounds indicated by MTT and the cell cycle experiments is apoptotic cell death or not. For that purpose, two cell lines, KF-28 and A2780, were stained by annexin V/PI after treatment with different compounds vs. DMSO for two days in parallel with cisplatin as a reference drug. Results from annexin staining analysis show appreciated annexin V–stained populations when cells are treated with compounds 5a–c, 5f, and 9. […] Similar results were obtained from the other cell line, A2780, treated with the same compounds (Figure 2B).
(§3) The cells were seeded into six-well culture plates (3–5 × 10^5 cells/well) and incubated overnight at 37°C, under 5% CO2. The cells were then treated with indicated compounds for 48 h. Next, media supernatants and the cells were collected and washed with ice-cold PBS. Next, the cells were stained with PI (10 mg/ml) for 30 min and analyzed for DNA contents using flow cytometry analysis using an FL2 (λex/em 535/617 nm) signal detector (ACEA Novocyte™ flow cytometer, ACEA Biosciences, Inc., San Diego, CA, United States). For each sample, 12,000 events are acquired. Cell cycle distribution is calculated using a CytoFLex machine and analyzed by CytExpert software. Flow cytometric methodologies (annexin V/PI staining with cell cycle analyses) are carried out as previously described ([Nafie et al., 2020a]; [Nafie et al., 2020b]; [Gad et al., 2020]).

KF-28 cells [8] = assay: DNA content and cell cycle analysis (PI, flow cytometry); type: cell-based, human; settings: 200 µM, 48 h
Experimental: Studying the cell cycle phases by measuring DNA content is a crucial test that helps in evaluating the impact of a given drug(s) on dividing cells and may reflect the mechanism through which this drug(s) affects those cells. […] Compounds 5a, 5b, 5c, 5f, 5g, and 9 were added to similar numbers of cells at 200 µM for 48 h, and then, the different cell cycle phases were assessed by flow cytometric analysis.
as §3

[9] = MTT, n = 3, read-out: IC50 Hela (Cervical)
[10] = Homo sapiens, MCF7, MTT, 72 h, n = 3
[11] = Homo sapiens, A2780, MTT, 72 h, n = 3

Cc1[nH]c(=NN=C2CCC(=NN=c3[nH]c(C)c(N=Nc4ccc(Cl)cc4)s3)CC2)sc1N=Nc1ccc(Cl)cc1 [5c, 1,4-Bis((5-(4-chlorophenylazo)-4-methylthiazol-2-ylidene)hydrazono)cyclohexane]
pIC50 ([1]; MDA-MB-231, MTT, 72 h, n = 3): 3.94 | pIC50 [2, 9]: > 4.60 | pIC50 [3]: < 3.70 | C-myc protein expression (Western blot) (C-myc in KF-28 cells): observable downregulation; also recorded: Appreciated downregulation

Cc1[nH]c(=NN=C2CCC(=NN=c3[nH]c(C)c(N=Nc4ccc([N+](=O)[O-])cc4)s3)CC2)sc1N=Nc1ccc([N+](=O)[O-])cc1 [5d, 1,4-Bis((5-(4-nitrophenylazo)-4-methylthiazol-2-ylidene)hydrazono)cyclohexane]
pIC50 ([4]; Homo sapiens, MCF7, 72 h): < 3.70 | pIC50 ([1]; MDA-MB-231, 72 h): < 3.70 | pIC50 ([2]; read-out: IC50 Hela (Cervical)): < 3.70 | pIC50 ([5]; Homo sapiens, A2780, 72 h): < 3.70 | pIC50 ([6]; Homo sapiens): < 3.70 | melting point: > 300 °C

Cc1ccccc1N=Nc1sc(=NN=C2CCC(=NN=c3[nH]c(C)c(N=Nc4ccccc4C)s3)CC2)[nH]c1C [5e, 1,4-Bis((5-(2-tolylazo)-4-methylthiazol-2-ylidene)hydrazono)cyclohexane]
pIC50 [4, 10]: > 4.60 | pIC50 ([1]; MDA-MB-231, MTT, 72 h, n = 3): < 3.70 | pIC50 [2, 9]: < 3.70 | pIC50 [5, 11]: 4.15 | pIC50 ([6]; Homo sapiens, MTT, n = 3): < 3.70

c1ccc2sc(-c3csc(=NN=C4CCC(=NN=c5[nH]c(-c6nc7ccccc7s6)cs5)CC4)[nH]3)nc2c1 [13a, 1,4-Bis((4-(2-benzothiazolyl)thiazol-2-ylidene)hydrazono)cyclohexane]
pIC50 [4, 10]: < 3.70 | pIC50 ([1]; MDA-MB-231, MTT, 72 h, n = 3): < 3.70 | pIC50 [2, 9]: < 3.70 | pIC50 [5, 11]: 4.56 | pIC50 ([6]; Homo sapiens, MTT, n = 3): < 3.70 | melting point: > 300 °C

c1ccc2oc(-c3csc(=NN=C4CCC(=NN=c5[nH]c(-c6cc7ccccc7o6)cs5)CC4)[nH]3)cc2c1 [13b, 1,4-Bis((4-(2-benzofuryl)thiazol-2-ylidene)hydrazono)cyclohexane]
melting point: 269 to 270 °C

O=c1oc2ccccc2cc1-c1csc(=NN=C2CCC(=NN=c3[nH]c(-c4cc5ccccc5oc4=O)cs3)CC2)[nH]1 [13c, 1,4-Bis((4-(3-coumarinyl)thiazol-2-ylidene)hydrazono)cyclohexane]
pIC50 [4, 10]: 3.75 | pIC50 [2, 9]: < 3.70 | pIC50 [5, 11]: 4.47 | pIC50 ([6]; Homo sapiens, MTT, n = 3): 4.07 | melting point: 241 to 242 °C

Clc1ccc(-c2csc(=NN=C3CCC(=NN=c4[nH]c(-c5ccc(Cl)cc5)cs4)CC3)[nH]2)cc1 [13d, 1,4-Bis((4-(4-chlorophenyl)thiazol-2-ylidene)hydrazono)cyclohexane]
pIC50 [4, 10]: < 3.70 | pIC50 [2, 9]: < 3.70 | melting point: 230 to 231 °C

O=C1NC(=NN=C2CCC(=NN=C3NC(=O)C(=Cc4ccccc4)S3)CC2)SC1=Cc1ccccc1 [14a, 1,4-Bis((5-benzylidene-4-oxo-thiazolidin-2-ylidene)hydrazono)cyclohexane]
melting point: > 300 °C

Cc1ccc(C=C2SC(=NN=C3CCC(=NN=C4NC(=O)C(=Cc5ccc(C)cc5)S4)CC3)NC2=O)cc1 [14b, 1,4-Bis((5-(4-methylbenzylidene)-4-oxo-thiazolidin-2-ylidene)hydrazono)cyclohexane]
melting point: 269 to 270 °C

O=C1NC(=NN=C2CCC(=NN=C3NC(=O)C(=Cc4ccc(Cl)cc4)S3)CC2)SC1=Cc1ccc(Cl)cc1 [14c, 1,4-Bis((5-(4-chlorobenzylidene)-4-oxo-thiazolidin-2-ylidene)hydrazono)cyclohexane]
melting point: > 300 °C

O=C1NC(=NN=C2CCC(=NN=C3NC(=O)C(=Cc4ccc(Br)cc4)S3)CC2)SC1=Cc1ccc(Br)cc1 [14d, 1,4-Bis((5-(4-bromobenzylidene)-4-oxo-thiazolidin-2-ylidene)hydrazono)cyclohexane]
melting point: 290 to 291 °C

N.N.[Cl][Pt][Cl] [Cisplatin, cisplatin, reference compound]
pIC50 ([4]; MTT, 72 h, n = 3): 5.92 | pIC50 ([5]; MTT, 72 h, n = 3): 5.81 | pIC50 ([6]; MTT, n = 3): 5.03 | Total apoptotic cell death (annexin V-positive cells) (KF-28 cells [7]): 25%

O=C1CSC(=NN=C2CCC(=NN=C3NC(=O)CS3)CC2)N1 [compound 9, 1,4-Bis((4-oxo-thiazolidin-2-ylidene)hydrazono)cyclohexane]
pIC50 [4, 10]: < 3.70 | pIC50 ([1]; MDA-MB-231, MTT, 72 h, n = 3): < 3.70 | pIC50 [2, 9]: 3.95 | pIC50 [5, 11]: 3.99 | pIC50 ([6]; Homo sapiens, MTT, n = 3): 4.06 | pIC50 [3]: 5.98 | Cell cycle phase S population (KF-28 cells [8]): 6.5% | Cell cycle phase G1 population (KF-28 cells [8]; DMSO control 72%): 78% | Total apoptotic cell death (annexin V-positive cells) (KF-28 cells [7]): did not induce appreciated apoptosis

CC(=O)c1sc(=NN=C2CCC(=NN=c3[nH]c(C)c(C(C)=O)s3)CC2)[nH]c1C [compound 11, 1,4-Bis((5-acetyl-4-methylthiazol-2-ylidene)hydrazono)cyclohexane]
melting point: 280 to 281 °C
